# Measured values from patent US12448392B2, “Spiropiperidine derivatives” (89BIO LTD, priority 2016, dated 2025).
# Target: T1, recombinant human baculovirus-expressed GST-tagged FASN (Homo sapiens, UniProt P49327)
# T1 construct: GST
# Assay: biochemical
# Conditions: not given
# T1 sequence (P49327 whole entry): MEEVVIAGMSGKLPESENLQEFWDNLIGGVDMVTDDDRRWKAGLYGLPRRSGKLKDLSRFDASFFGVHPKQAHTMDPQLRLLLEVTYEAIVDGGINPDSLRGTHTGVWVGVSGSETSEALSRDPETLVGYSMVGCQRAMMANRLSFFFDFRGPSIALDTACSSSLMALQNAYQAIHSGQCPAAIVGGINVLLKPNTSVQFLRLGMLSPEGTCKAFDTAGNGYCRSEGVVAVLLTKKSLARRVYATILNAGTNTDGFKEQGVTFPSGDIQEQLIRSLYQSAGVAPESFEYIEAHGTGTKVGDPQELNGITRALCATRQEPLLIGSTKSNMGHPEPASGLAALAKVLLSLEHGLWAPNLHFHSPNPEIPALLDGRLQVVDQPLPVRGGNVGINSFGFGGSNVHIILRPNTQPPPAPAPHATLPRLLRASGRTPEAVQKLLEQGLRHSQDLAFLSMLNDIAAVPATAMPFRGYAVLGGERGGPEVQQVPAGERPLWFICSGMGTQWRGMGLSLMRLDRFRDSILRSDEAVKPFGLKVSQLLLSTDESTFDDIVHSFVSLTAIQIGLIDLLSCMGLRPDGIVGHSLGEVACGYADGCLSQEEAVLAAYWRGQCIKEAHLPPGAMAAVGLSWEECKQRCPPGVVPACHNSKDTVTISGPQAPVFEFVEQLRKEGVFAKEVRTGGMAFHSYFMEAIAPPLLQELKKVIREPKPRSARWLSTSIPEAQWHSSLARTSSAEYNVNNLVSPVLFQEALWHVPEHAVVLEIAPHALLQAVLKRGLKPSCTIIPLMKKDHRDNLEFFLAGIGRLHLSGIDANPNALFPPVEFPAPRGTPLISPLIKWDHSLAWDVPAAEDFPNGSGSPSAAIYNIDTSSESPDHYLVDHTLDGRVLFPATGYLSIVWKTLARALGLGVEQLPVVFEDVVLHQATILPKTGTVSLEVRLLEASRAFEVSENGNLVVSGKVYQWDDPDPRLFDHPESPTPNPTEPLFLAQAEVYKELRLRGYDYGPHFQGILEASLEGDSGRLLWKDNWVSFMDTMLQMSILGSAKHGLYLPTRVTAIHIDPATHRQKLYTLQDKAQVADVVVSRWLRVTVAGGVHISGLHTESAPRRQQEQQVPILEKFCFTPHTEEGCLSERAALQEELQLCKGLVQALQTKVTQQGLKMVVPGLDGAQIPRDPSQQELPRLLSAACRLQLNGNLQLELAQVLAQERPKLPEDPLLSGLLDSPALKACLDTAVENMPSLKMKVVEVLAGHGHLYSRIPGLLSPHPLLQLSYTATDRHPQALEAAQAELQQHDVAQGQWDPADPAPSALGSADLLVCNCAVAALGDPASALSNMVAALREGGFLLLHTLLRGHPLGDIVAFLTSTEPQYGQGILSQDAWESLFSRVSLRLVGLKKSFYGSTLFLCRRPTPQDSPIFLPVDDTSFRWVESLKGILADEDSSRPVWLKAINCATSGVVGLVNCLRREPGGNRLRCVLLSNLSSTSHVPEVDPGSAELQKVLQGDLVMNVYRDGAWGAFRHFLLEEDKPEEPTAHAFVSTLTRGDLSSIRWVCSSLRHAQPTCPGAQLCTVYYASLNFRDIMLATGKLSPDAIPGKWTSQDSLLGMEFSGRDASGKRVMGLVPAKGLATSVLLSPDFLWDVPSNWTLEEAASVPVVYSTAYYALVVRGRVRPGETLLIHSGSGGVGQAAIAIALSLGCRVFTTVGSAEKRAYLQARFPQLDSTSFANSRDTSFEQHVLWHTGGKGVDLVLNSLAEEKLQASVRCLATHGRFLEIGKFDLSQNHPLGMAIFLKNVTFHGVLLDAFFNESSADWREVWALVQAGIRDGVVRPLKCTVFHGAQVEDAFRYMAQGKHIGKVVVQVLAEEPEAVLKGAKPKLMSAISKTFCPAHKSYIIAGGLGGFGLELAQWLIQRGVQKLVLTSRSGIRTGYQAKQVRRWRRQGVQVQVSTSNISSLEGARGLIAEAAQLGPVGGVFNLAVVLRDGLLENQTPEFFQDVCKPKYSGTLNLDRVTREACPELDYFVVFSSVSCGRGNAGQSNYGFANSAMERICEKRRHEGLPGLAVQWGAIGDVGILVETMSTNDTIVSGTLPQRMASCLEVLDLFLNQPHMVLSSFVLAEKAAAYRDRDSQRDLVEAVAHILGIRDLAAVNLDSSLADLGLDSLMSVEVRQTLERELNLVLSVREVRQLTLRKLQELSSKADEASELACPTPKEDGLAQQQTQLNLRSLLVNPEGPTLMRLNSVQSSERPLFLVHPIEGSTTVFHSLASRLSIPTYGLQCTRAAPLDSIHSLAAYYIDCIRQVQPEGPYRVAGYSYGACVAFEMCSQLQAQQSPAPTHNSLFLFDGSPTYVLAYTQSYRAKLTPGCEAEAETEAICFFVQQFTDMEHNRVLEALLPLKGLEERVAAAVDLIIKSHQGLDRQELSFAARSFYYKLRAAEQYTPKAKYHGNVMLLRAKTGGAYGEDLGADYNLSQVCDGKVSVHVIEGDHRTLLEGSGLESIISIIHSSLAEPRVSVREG
row,SMILES,IC50
1,"CCONC(=O)N1CCC2(CC1)OCc1cc(-c3ccc4cccnc4c3C)ccc1O2 [Example 121, N-Ethoxy-6-(8-methyl-7-quinolyl)spiro[4H-1,3-benzodioxine-2,4′-piperidine]-1′-carboxamide]",1 to 99 nM
2,"CONC(=O)N1CCC2(CC1)OCc1cc(-c3ccc4cccnc4c3C)ccc1O2 [Example 122, N-Methoxy-6-(8-methyl-7-quinolyl)spiro[4H-1,3-benzodioxine-2,4′-piperidine]-1′-carboxamide]",1 to 99 nM
3,"Cc1c(-c2ccc3c(c2)COC2(CCN(C(=O)NOC(C)C)CC2)O3)ccc2cccnc12 [Example 123, N-Isopropoxy-6-(8-methyl-7-quinolyl)spiro[4H-1,3-benzodioxine-2,4′-piperidine]-1′-carboxamide]",1 to 99 nM
4,"CCNC(=O)N1CCC2(CC1)OCc1cc(-c3ccc4ccnn4c3C)ccc1O2 [Example 126, N-Ethyl-6-(7-methylpyrazolo[1,5-a]pyridin-6-yl)spiro[4H-1,3-benzodioxine-2,4′-piperidine]-1′-carboxamide]",1 to 99 nM
5,"Cc1c(-c2ccc3c(c2)COC2(CCN(C(N)=O)CC2)O3)ccc2ccnn12 [Example 127, 6-(7-Methylpyrazolo[1,5-a]pyridin-6-yl)spiro[4H-1,3-benzodioxine-2,4′-piperidine]-1′-carboxamide]",100 to 999 nM
6,"CONC(=O)N1CCC2(CC1)OCc1cc(-c3ccc4ccnn4c3C)ccc1O2 [Example 128, N-Methoxy-6-(7-methylpyrazolo[1,5-a]pyridin-6-yl)spiro[4H-1,3-benzodioxine-2,4′-piperidine]-1′-carboxamide]",1 to 99 nM
7,"CCONC(=O)N1CCC2(CC1)OCc1cc(-c3ccc4ccnn4c3C)ccc1O2 [Example 129, N-Ethoxy-6-(7-methylpyrazolo[1,5-a]pyridin-6-yl)spiro[4H-1,3-benzodioxine-2,4′-piperidine]-1′-carboxamide]",1 to 99 nM
8,"Cc1c(-c2ccc3c(c2)COC2(CCN(C(=O)NOC(C)C)CC2)O3)ccc2ccnn12 [Example 130, N-Isopropoxy-6-(7-methylpyrazolo[1,5-a]pyridin-6-yl)spiro[4H-1,3-benzodioxine-2,4′-piperidine]-1′-carboxamide]",1 to 99 nM
9,"NC(=O)N1CCC2(CC1)OCc1cc(-c3ccc4cccnc4c3Cl)ccc1O2 [Example 131, 6-(8-Chloro-7-quinolyl)spiro[4H-1,3-benzodioxine-2,4′-piperidine]-1′-carboxamide]",100 to 999 nM
10,"Cc1c(-c2ccc3c(c2)COC2(CCN(C(N)=O)CC2)O3)cnc2ccccc12 [Example 132, 6-(4-Methyl-3-quinolyl)spiro[4H-1,3-benzodioxine-2,4′-piperidine]-1′-carboxamide]",100 to 999 nM
11,"CONC(=O)N1CCC2(CC1)OCc1cc(-c3cnc4ccccc4c3C)ccc1O2 [Example 133, N-Methoxy-6-(4-methyl-3-quinolyl)spiro[4H-1,3-benzodioxine-2,4′-piperidine]-1′-carboxamide]",1 to 99 nM
12,"CONC(=O)N1CCC2(CC1)OCc1cc(-c3ccc4cccnc4c3Cl)ccc1O2 [Example 134, 6-(8-Chloro-7-quinolyl)-N-methoxy-spiro[4H-1,3-benzodioxine-2,4′-piperidine]-1′-carboxamide]",1 to 99 nM
13,"CCONC(=O)N1CCC2(CC1)OCc1cc(-c3ccc4cccnc4c3Cl)ccc1O2 [Example 135, 6-(8-Chloro-7-quinolyl)-N-ethoxy-spiro[4H-1,3-benzodioxine-2,4′-piperidine]-1′-carboxamide]",1 to 99 nM
14,"O=C(NO)N1CCC2(CC1)OCc1cc(-c3ccc4cccnc4c3Cl)ccc1O2 [Example 136, 6-(8-Chloro-7-quinolyl)spiro[4H-1,3-benzodioxine-2,4′-piperidine]-1′-carbohydroxamic acid]",100 to 999 nM
15,"CCOC(=O)N1CCC2(CC1)OCc1cc(-c3ccc4cccnc4c3Cl)ccc1O2 [Example 137, Ethyl 6-(8-chloro-7-quinolyl)spiro[4H-1,3-benzodioxine-2,4′-piperidine]-1′-carboxylate]",1000 to 10000 nM
16,"CCOC(=O)N1CCC2(CC1)OCc1cc(-c3cnc4ccccc4c3C)ccc1O2 [Example 138, Ethyl 6-(4-methyl-3-quinolyl)spiro[4H-1,3-benzodioxine-2,4′-piperidine]-1′-carboxylate]",100 to 999 nM
17,"CCONC(=O)N1CCC2(CC1)OCc1cc(-c3cnc4ccccc4c3C)ccc1O2 [Example 139, N-Ethoxy-6-(4-methyl-3-quinolyl)spiro[4H-1,3-benzodioxine-2,4′-piperidine]-1′-carboxamide]",1 to 99 nM
18,"Cc1c(-c2ccc3c(c2)COC2(CCN(C(=O)NO)CC2)O3)cnc2ccccc12 [Example 140, 6-(4-Methyl-3-quinolyl)spiro[4H-1,3-benzodioxine-2,4′-piperidine]-1′-carbohydroxamic acid]",1000 to 10000 nM
19,"NC(=O)N1CCC2(CC1)OCc1cc(-c3cc4ccccc4cn3)ccc1O2 [Example 142, 6-(3-Isoquinolyl)spiro[4H-1,3-benzodioxine-2,4′-piperidine]-1′-carboxamide]",1000 to 10000 nM
20,"O=C(NOC1CCCCO1)N1CCC2(CC1)OCc1cc(-c3cc4ccccc4cn3)ccc1O2 (stereo not shown) [Example 144, 6-(3-Isoquinolyl)-N-tetrahydropyran-2-yloxy-spiro[4H-1,3-benzodioxine-2,4′-piperidine]-1′-carboxamide]",100 to 999 nM
21,"CCONC(=O)N1CCC2(CC1)OCc1cc(-c3cc4ccccc4cn3)ccc1O2 [Example 145, N-Ethoxy-6-(3-isoquinolyl)spiro[4H-1,3-benzodioxine-2,4′-piperidine]-1′-carboxamide]",1 to 99 nM
22,"CONC(=O)N1CCC2(CC1)OCc1cc(-c3cc4ccccc4cn3)ccc1O2 [Example 147, 6-(3-Isoquinolyl)-N-methoxy-spiro[4H-1,3-benzodioxine-2,4′-piperidine]-1′-carboxamide]",1 to 99 nM
23,"O=C(NO)N1CCC2(CC1)OCc1cc(-c3cc4ccccc4cn3)ccc1O2 [Example 150, 6-(3-Isoquinolyl)spiro[4H-1,3-benzodioxine-2,4′-piperidine]-1′-carbohydroxamic acid]",1000 to 10000 nM

# Same assay, conditions: 5 nM FASN, 150 μM NADPH, 10 μM acetyl-CoA, 25 μM malonyl-CoA, 90 minutes incubation; read-out: IC50 data for Compounds of Formula I, Activity
row,SMILES,IC50
1,"CONC(=O)N1CCC2(CCc3cc(-c4ccc5cccnc5c4C)ccc3O2)CC1 [Example 120, N-Methoxy-6-(8-methyl-7-quinolyl)spiro[chromane-2,4′-piperidine]-1′-carboxamide]",1 to 99 nM
2,"CONC(=O)N1CCC2(CCc3cc(-c4ccc5ccnn5c4C)ccc3O2)CC1 [Example 124, N-Methoxy-6-(7-methylpyrazolo[1,5-a]pyridin-6-yl)spiro[chromane-2,4′-piperidine]-1′-carboxamide]",1 to 99 nM
3,"Cc1c(-c2ccc3c(c2)CCC2(CCN(C(=O)NO)CC2)O3)ccc2ccnn12 [Example 125, 6-(7-Methylpyrazolo[1,5-a]pyridin-6-yl)spiro[chromane-2,4′-piperidine]-1′-carbohydroxamic acid]",1000 to 10000 nM
4,"Cc1c(-c2ccc3c(c2)CCC2(CCN(C(=O)NO)CC2)O3)ccc2nccn12 [Example 141, 6-(5-Methylimidazo[1,2-a]pyridin-6-yl)spiro[chromane-2,4′-piperidine]-1′-carbohydroxamic acid]",1000 to 10000 nM
5,"NC(=O)N1CCC2(CCc3cc(-c4cc5ccccc5cn4)ccc3O2)CC1 [Example 143, 6-(3-Isoquinolyl)spiro[chromane-2,4′-piperidine]-1′-carboxamide]",1000 to 10000 nM
6,"O=C(NOC1CCCCO1)N1CCC2(CCc3cc(-c4cc5ccccc5cn4)ccc3O2)CC1 (stereo not shown) [Example 146, 6-(3-Isoquinolyl)-N-tetrahydropyran-2-yloxy-spiro[chromane-2,4′-piperidine]-1′-carboxamide]",100 to 999 nM
7,"CONC(=O)N1CCC2(CCc3cc(-c4cc5ccccc5cn4)ccc3O2)CC1 [Example 148, 6-(3-Isoquinolyl)-N-methoxy-spiro[chromane-2,4′-piperidine]-1′-carboxamide]",1 to 99 nM
8,"CCONC(=O)N1CCC2(CCc3cc(-c4cc5ccccc5cn4)ccc3O2)CC1 [Example 149, N-Ethoxy-6-(3-isoquinolyl)spiro[chromane-2,4′-piperidine]-1′-carboxamide]",1 to 99 nM
9,"O=C(NO)N1CCC2(CCc3cc(-c4cc5ccccc5cn4)ccc3O2)CC1 [Example 151, 6-(3-Isoquinolyl)spiro[chromane-2,4′-piperidine]-1′-carbohydroxamic acid]",1000 to 10000 nM
10,"Cc1c(-c2ccc3c(c2)CC2(CCN(C(N)=O)CC2)O3)ccc2cccnc12 [Example 152, 5-(8-Methyl-7-quinolyl)spiro[3H-benzofuran-2,4′-piperidine]-1′-carboxamide]",1 to 99 nM
11,"CONC(=O)N1CCC2(CC1)Cc1cc(-c3ccc4cccnc4c3C)ccc1O2 [Example 153, N-Methoxy-5-(8-methyl-7-quinolyl)spiro[3H-benzofuran-2,4′-piperidine]-1′-carboxamide]",1000 to 10000 nM
12,"CCONC(=O)N1CCC2(CC1)Cc1cc(-c3ccc4cccnc4c3C)ccc1O2 [Example 154, N-Ethoxy-5-(8-methyl-7-quinolyl)spiro[3H-benzofuran-2,4′-piperidine]-1′-carboxamide]",1000 to 10000 nM
13,"Cc1c(-c2ccc3c(c2)CC2(CCN(C(=O)NO)CC2)O3)ccc2cccnc12 [Example 155, 5-(8-Methyl-7-quinolyl)spiro[3H-benzofuran-2,4′-piperidine]-1′-carbohydroxamic acid]",1000 to 10000 nM
14,"CCNC(=O)N1CCC2(CC1)Cc1cc(-c3ccc4cccnc4c3C)ccc1O2 [Example 156, N-Ethyl-5-(8-methyl-7-quinolyl)spiro[3H-benzofuran-2,4′-piperidine]-1′-carboxamide]",1000 to 10000 nM
15,"CONC(=O)N1CCC2(CC1)Cc1cc(-c3cnc4ccccc4c3C)ccc1O2 [Example 157, N-Methoxy-5-(4-methyl-3-quinolyl)spiro[3H-benzofuran-2,4′-piperidine]-1′-carboxamide]",1000 to 10000 nM
16,"CCONC(=O)N1CCC2(CC1)Cc1cc(-c3cnc4ccccc4c3C)ccc1O2 [Example 158, N-ethoxy-5-(4-methyl-3-quinolyl)spiro[3H-benzofuran-2,4′-piperidine]-1′-carboxamide]",1000 to 10000 nM
17,"Cc1c(-c2ccc3c(c2)CC2(CCN(C(N)=O)CC2)O3)cnc2ccccc12 [Example 159, 5-(4-Methyl-3-quinolyl)spiro[3H-benzofuran-2,4′-piperidine]-1′-carboxamide]",1000 to 10000 nM
